The results in this text go back to patent US4647574A, “Hypoglycemic hydantoin derivatives” (Nippon Zoki Pharmaceutical Co., Ltd., priority 1984, dated 1987).

Assay [1] relates to Blood Glucose. Description: Hypoglycemic effect (modified method by Dulin et al.). The assay is classed as in vivo, rat (Sprague-Dawley-strain male). The conditions noted are these: 2 hours; for Blood Glucose Level: glucose-loaded fasted rats, control 134.6 ± 2.8. As for the experimental part:
Groups of 10 Sprague-Dawley-strain male rats (weighing about 250 g each) which had fasted for 18 hours were used for measurement of hypoglycemic effect according to the modified method by Dulin et al. (Dulin et al, Proc. Soc. Expl. Med., 107, 245 (1961)). That is, 0.5 ml/100 g of 20% aqueous solution of glucose was subcutaneously administered into the backs of rats to prevent a decrease in blood glucose level because of the fasting. […] The obtained blood sample was allowed to stand for 30 minutes to complete the coagulation and was centrifuged to obtain the serum. Blood sugar level was measured according to the mutalotase GOD method (Trinder, Ann. Clin. Biochem., vol. 6, p. 24 ([…])).

The test system of assay [2] is Serum Triglyceride. Description: Hypolipidemic effect: serum triglyceride. Format: in vivo, rat (Wister strain male). Conditions: 100 mg/kg oral, 2 hours, fasted rats; for Serum Triglyceride Decrease: vs control; for Serum Triglyceride Level: control 33.5 ± 2.9. The method, then:
(§1) The test drugs were orally administered to groups of 6 Wisterstrain male rats (each weighing approximately 210-250 g) which had fasted for 20 hours. 2 hours later, the serum was obtained in the same manner as described in (2). Serum triglyceride was measured by GPO-p-chlorophenol colorimetric determination (Richard et al., Clinical Chemistry, vol. 24, p. 1343 (1978)) and serum free fatty acid was measured according to the Acyl CoA Synthetase-Acyl CoA Oxidase method (Shimizu, et al., Biochem. Biophys. Res. Commun., vol. 91, p. 108 (1979)).

Assay [3] has as its system serum free fatty acid. Description: Hypolipidemic effect: serum free fatty acid. The assay is classed as in vivo, rat (Wister strain male). The conditions noted are these: 100 mg/kg oral, 2 hours, fasted rats; for Serum Fatty Acid Decrease: vs control; for Serum Fatty Acid Level: control 0.51 ± 0.44. As for the experimental part:
as §1

The test system of assay [4] is excreted sodium. Description: Diuretic effect: excreted sodium in rats (Lipschitz method). Format: in vivo, rat (Long-Evans strain male). Conditions: 20 mg/kg oral, within 1 day. As for the experimental part: 20 mg/kg of the compound 1 of the present invention were orally administered to Long-Evans strain male rats (weighing about 130-150 g each), and the total amount of excreted sodium within 1 day was then measured according to the method by Lipschitz (JPFT, Vol. 79, p. 97 (1943)).

Assay [5] concerns sodium in urine. The assay can be described thus: Diuretic effect: sodium in urine in mice. The assay is classed as in vivo, mouse. The conditions noted are these: subcutaneous, up until 2 hours after the administration.
Assay [6] has as its system urine sugar. Description: Urine sugar in glucose loaded rats. The assay is classed as in vivo, rat. Conditions: 200 mg/kg oral. The method, then: In addition, 200 mg/kg of the compound 1 of the present invention were orally administered to glucose loaded rats and the urine sugar was measured.
The mark [7] stands for this setting: Rattus norvegicus, 50 mg/kg oral, vs control, read-out: Blood Glucose Decrease.
[8] abbreviates: Rattus norvegicus, 200 mg/kg oral, vs control, read-out: Blood Glucose Decrease.

Molecules are shown by their SMILES.

Turning to `CCCCNC(=O)NS(=O)(=O)c1ccc(C)cc1` [Tolubutamide, reference compound], the “Blood Glucose Level” value in assay [1] (50 mg/kg oral) is 63.4 ± 4.7 mg/dL; in assay [1] (100 mg/kg oral), 53.0 ± 4.5 mg/dL. In addition, the inhibition in vivo at 50 mg/kg in assay [1] (setting [7]) was found to be 52.9%. For the same compound, in assay [1] (Rattus norvegicus, 100 mg/kg oral, vs control, read-out: Blood Glucose Decrease), the inhibition in vivo at 100 mg/kg worked out at 60.6%.
For `CN1C(=O)NC(=O)C1O` (stereo not shown) [compound 1, 5-hydroxy-1-methylhydantoin], the “Blood Glucose Level” value in assay [1] (25 mg/kg oral) turned out to be 89.0 ± 4.1 mg/dL; in assay [1] (50 mg/kg oral), 87.1 ± 3.3 mg/dL; in assay [1] (200 mg/kg oral), 81.8 ± 4.0 mg/dL. Further, the inhibition in vivo at 25 mg/kg in assay [1] (Rattus norvegicus, 25 mg/kg oral, vs control, read-out: Blood Glucose Decrease) was 33.9%. Also, the inhibition in vivo at 50 mg/kg in assay [1] (setting [7]) amounted to 35.3%. Further, the inhibition in vivo at 200 mg/kg in assay [1] (setting [8]) is 39.2%. The “Serum Triglyceride Decrease” value in assay [2] came to 68%. The “Serum Triglyceride Level” value in assay [2] came to 10.7 ± 1.3 mg/dL. Besides, the “Serum Fatty Acid Decrease” value in assay [3] amounted to 66%. Besides, the “Serum Fatty Acid Level” value in assay [3] stood at 0.17 ± 0.01 mEq/dl. In assay [4], the “total amount of excreted sodium, ratio to control group” value is on record as 1.8 times. In addition, in assay [5], the “increase in the amount of sodium in urine as compared with the control group” value turned out to be 50.5%. Further, the “urine sugar, difference between medicated and control groups” value in assay [6] was “No difference was found between the medicated and control groups”.
Regarding `CN1C(=O)NC(O)C1=O` (stereo not shown) [compound 2, 5-hydroxy-3-methylhydantoin], in assay [1] (200 mg/kg oral), the “Blood Glucose Level” value was 115.5 ± 3.9 mg/dL. Besides, in assay [1] (setting [8]), the inhibition in vivo at 200 mg/kg was 14.2%. Also, in assay [2], the “Serum Triglyceride Decrease” value worked out at 59% and the “Serum Triglyceride Level” value amounted to 13.8 ± 0.9 mg/dL. In addition, in assay [3], the “Serum Fatty Acid Decrease” value is 45% and the “Serum Fatty Acid Level” value is on record as 0.28 ± 0.04 mEq/dl.
`CCN1C(=O)NC(=O)C1O` (stereo not shown) [compound 3, 5-hydroxy-1-ethylhydantoin]: the “Blood Glucose Level” value in assay [1] (200 mg/kg oral) worked out at 76.0 ± 3.8 mg/dL. The inhibition in vivo at 200 mg/kg in assay [1] (setting [8]) stood at 43.5%.
As to `CCCCN1C(=O)NC(=O)C1O` (stereo not shown) [compound 4, 5-hydroxy-1-butylhydantoin], the “Blood Glucose Level” value in assay [1] (200 mg/kg oral) was 82.6 ± 3.6 mg/dL. In addition, the inhibition in vivo at 200 mg/kg in assay [1] (setting [8]) is 38.6%. Further, in assay [2], the “Serum Triglyceride Decrease” value amounted to 54% and the “Serum Triglyceride Level” value was determined as 15.3 ± 2.4 mg/dL. Further, in assay [3], the “Serum Fatty Acid Decrease” value is 41% and the “Serum Fatty Acid Level” value was found to be 0.30 ± 0.01 mEq/dl.
For `COC1C(=O)NC(=O)N1C` (stereo not shown) [compound 5, 5-methoxy-1-methylhydantoin], in assay [1] (200 mg/kg oral), the “Blood Glucose Level” value worked out at 109.4 ± 2.3 mg/dL. In addition, in assay [1] (setting [8]), the inhibition in vivo at 200 mg/kg was 18.7%.
Taken in the same sequence, the figures for `O=C1NC(=O)N(C2CCCC2)C1O` (stereo not shown) [compound 15, 5-hydroxy-1-cyclopentylhydantoin] were 85.3 ± 5.9 mg/dL and 36.6%.
On the same counts, the results for `O=C1NC(=O)N(C2CCCCC2)C1O` (stereo not shown) [compound 16, 5-hydroxy-1-cyclohexylhydantoin] are 89.6 ± 2.7 mg/dL and 33.4%.
Regarding `CN1CC(=O)NC1=O` [compound 23, 1methylhydantoin], in assay [1] (200 mg/kg oral), the “Blood Glucose Level” value is 106.9 ± 3.9 mg/dL. In addition, the inhibition in vivo at 200 mg/kg in assay [1] (setting [8]) came to 20.6%. Besides, in assay [2], the “Serum Triglyceride Decrease” value amounted to 45% and the “Serum Triglyceride Level” value was determined as 18.5 ± 1.8 mg/dL. Further, in assay [3], the “Serum Fatty Acid Decrease” value worked out at 43% and the “Serum Fatty Acid Level” value was 0.29 ± 0.01 mEq/dl.
